Measurements reported in ChEMBL document CHEMBL1138970, “Structure-activity relationships of [2',5'-bis-O-(tert-butyldimethylsilyl)-beta-D-ribofuranosyl]- 3'-spiro-5' '-(4' '-amino-1' ',2' '-oxathiole-2' ',2' '-dioxide)thymine derivatives as inhibitors of HIV-1 reverse transcriptase dimerization” (J Med Chem, 2006).
pEC50, pIC50: −log10 of the molar value.

Tests used:
[1] = target: T1, Human immunodeficiency virus type 1 reverse transcriptase (Human immunodeficiency virus 1, UniProt Q72547); assay: Inhibition of HIV1 reverse transcriptase RNA-dependent DNA polymerase activity
[2] = target: T1, Human immunodeficiency virus type 1 reverse transcriptase; assay: Inhibition of FLAG-p66/HIS-p51-mediated HIV1 reverse transcriptase dimerization
[3] = Inhibition of MT4 cell viability; format: cell-based; settings: human, MT4 cells
[4] = test system: Human immunodeficiency virus 1; assay: Antiviral activity against HIV1 in MT4 cells; format: functional, organism-based; settings: Human immunodeficiency virus 1, MT4

Compound	pIC50 [1]	pIC50 [2]	pEC50 [4]	CC50 [3] [µM]
Cc1cn([C@@H]2O[C@H](CO[Si](C)(C)C(C)(C)C)[C@@]3(OS(=O)(=O)C=C3N)[C@H]2O[Si](C)(C)C(C)(C)C)c(=O)[nH]c1=O	6.00	5.17	7.22	14
CCc1cn([C@@H]2O[C@H](CO[Si](C)(C)C(C)(C)C)[C@@]3(OS(=O)(=O)C=C3N)[C@H]2O[Si](C)(C)C(C)(C)C)c(=O)[nH]c1=O	5.47	5.07	7.22	20
Cc1cn([C@@H]2O[C@H](CO[Si](C)(C)C(C)(C)C)[C@@]3(OS(=O)(=O)C=C3N)[C@H]2O[Si](C)(C)C(C)(C)C)c(=O)n(C)c1=O	5.89	5.24	7.22	240
Cc1cn([C@@H]2O[C@H](CO[Si](C)(C)C(C)(C)C)[C@@]3(OS(=O)(=O)C=C3N=C(N)N)[C@H]2O[Si](C)(C)C(C)(C)C)c(=O)[nH]c1=O	5.42	4.85	6.02	87
CN(C)C(=O)c1cnnn1[C@@H]1O[C@H](CO[Si](C)(C)C(C)(C)C)[C@@]2(OS(=O)(=O)C=C2N)[C@H]1O[Si](C)(C)C(C)(C)C	5.19	4.93	7.40	12
Cc1cn([C@@H]2O[C@H](CO[Si](C)(C)C(C)(C)C)[C@@]3(OS(=O)(=O)C=C3N)[C@H]2O[Si](C)(C)C(C)(C)C)c(=O)n(CCc2ccccc2)c1=O	6.10	5.52	6.08	2
Cc1cn([C@@H]2O[C@H](CO[Si](C)(C)C(C)(C)C)[C@@]3(OS(=O)(=O)C=C3N)[C@H]2O[Si](C)(C)C(C)(C)C)c(=O)n(CC(=O)N[C@@H](CC(=O)O)C(=O)O)c1=O	5.04	4.92	5.20	> 250
CNC(=O)CCCCn1c(=O)c(C)cn([C@@H]2O[C@H](CO[Si](C)(C)C(C)(C)C)[C@@]3(OS(=O)(=O)C=C3N)[C@H]2O[Si](C)(C)C(C)(C)C)c1=O	5.49	5.17	7.30	> 250
Cc1cn([C@@H]2O[C@H](CO[Si](C)(C)C(C)(C)C)[C@@]3(OS(=O)(=O)C=C3N)[C@H]2O[Si](C)(C)C(C)(C)C)c(=O)n(CCCN(CC(=O)O)CC(=O)O)c1=O	4.97	5.28	5.08	123
Cc1cn([C@@H]2O[C@H](CO[Si](C)(C)C(C)(C)C)[C@@]3(OS(=O)(=O)C=C3N)[C@H]2O[Si](C)(C)C(C)(C)C)c(=O)n(/C=C\CO)c1=O	5.80	5.51	6.49	36
Cc1cn([C@@H]2O[C@H](CO[Si](C)(C)C(C)(C)C)[C@@]3(OS(=O)(=O)C(/C=C/CO)=C3N)[C@H]2O[Si](C)(C)C(C)(C)C)c(=O)[nH]c1=O	5.32	4.80	5.18	17
Cc1cn([C@@H]2O[C@H](CO[Si](C)(C)C(C)(C)C)[C@@]3(OS(=O)(=O)C=C3N)[C@H]2O[Si](C)(C)C(C)(C)C)c(=O)n(CC(N)=O)c1=O	5.77	5.15	7.15	18
Cc1cn([C@@H]2O[C@H](CO[Si](C)(C)C(C)(C)C)[C@@]3(OS(=O)(=O)C=C3N)[C@H]2O[Si](C)(C)C(C)(C)C)c(=O)n(CC(=O)O)c1=O	5.49	5.26	5.21	> 155
Cc1cn([C@@H]2O[C@H](CO[Si](C)(C)C(C)(C)C)[C@@]3(OS(=O)(=O)C=C3N)[C@H]2O[Si](C)(C)C(C)(C)C)c(=O)n(CCCN)c1=O	5.36	5.14	6.28	14
CCCn1c(=O)c(C)cn([C@@H]2O[C@H](CO[Si](C)(C)C(C)(C)C)[C@@]3(OS(=O)(=O)C=C3N)[C@H]2O[Si](C)(C)C(C)(C)C)c1=O	6.30	5.37	6.59	75
Cc1cn([C@@H]2O[C@H](CO[Si](C)(C)C(C)(C)C)[C@@]3(OS(=O)(=O)C=C3N)[C@H]2O[Si](C)(C)C(C)(C)C)c(=O)n(CCCO)c1=O	6.15	5.80	7.52	4

More lines, main results first:

pIC50 [1]	pIC50 [2]	pEC50 [4]	Compound	CC50 [3] [µM]
5.24	5.96	5.19	Cc1cn(C2OC(CO[Si](C)(C)C(C)(C)C)CC2O[Si](C)(C)C(C)(C)C)c(=O)n(CC(=O)O)c1=O (stereo unspecified)	17
5.10	5.46	6.92	Cc1cn([C@@H]2O[C@H](CO[Si](C)(C)C(C)(C)C)[C@@]3(OS(=O)(=O)C(I)=C3N)[C@H]2O[Si](C)(C)C(C)(C)C)c(=O)[nH]c1=O	4
5.62	5.30	6.96	Cc1cn([C@@H]2O[C@H](CO[Si](C)(C)C(C)(C)C)[C@@]3(OS(=O)(=O)C=C3N)[C@H]2O[Si](C)(C)C(C)(C)C)c(=O)n(CC2CO2)c1=O (stereo partly specified)	56
6.30	5.72	7.40	Cc1cn([C@@H]2O[C@H](CO[Si](C)(C)C(C)(C)C)[C@@]3(OS(=O)(=O)C=C3N)[C@H]2O[Si](C)(C)C(C)(C)C)c(=O)n(/C=C/CO)c1=O	4
5.18	5.18	5.27	Cc1cn([C@@H]2O[C@H](CO[Si](C)(C)C(C)(C)C)[C@@H](O)[C@H]2O[Si](C)(C)C(C)(C)C)c(=O)n(CC(=O)O)c1=O	19
5.27	5.14	5.35	COC(=O)C(=O)NC1=CS(=O)(=O)O[C@@]12[C@@H](COCc1ccccc1)O[C@@H](n1cc(C)c(=O)n(C)c1=O)[C@@H]2O[Si](C)(C)C(C)(C)C	4
5.51	4.92	5.24	Cc1cn([C@@H]2O[C@H](CO[Si](C)(C)C(C)(C)C)[C@@]3(OS(=O)(=O)C=C3N)[C@H]2O[Si](C)(C)C(C)(C)C)c(=O)n(CC(=O)N[C@@H](C)C(=O)O)c1=O	> 250
5.08	5.00	6.28	CC(C)(C)[Si](C)(C)OC[C@H]1O[C@@H](n2nncc2C(N)=O)[C@H](O[Si](C)(C)C(C)(C)C)[C@]12OS(=O)(=O)C=C2N	15
